Assay results published in US12667572B2, “Tricyclic compounds useful in the treatment of cancer, autoimmune and inflammatory disorders” (SCHRÖDINGER, INC., priority 2021, dated 2026).

Molecular target: T1, full-length MALT1 protein His-MALT1(1-824) (Homo sapiens, UniProt Q9UDY8)
T1 construct: full-length MALT1 protein His-MALT1(1-824); His (N); made in house; host or cells: baculovirus-infected insect cells
T1 sequence (Q9UDY8 1-824): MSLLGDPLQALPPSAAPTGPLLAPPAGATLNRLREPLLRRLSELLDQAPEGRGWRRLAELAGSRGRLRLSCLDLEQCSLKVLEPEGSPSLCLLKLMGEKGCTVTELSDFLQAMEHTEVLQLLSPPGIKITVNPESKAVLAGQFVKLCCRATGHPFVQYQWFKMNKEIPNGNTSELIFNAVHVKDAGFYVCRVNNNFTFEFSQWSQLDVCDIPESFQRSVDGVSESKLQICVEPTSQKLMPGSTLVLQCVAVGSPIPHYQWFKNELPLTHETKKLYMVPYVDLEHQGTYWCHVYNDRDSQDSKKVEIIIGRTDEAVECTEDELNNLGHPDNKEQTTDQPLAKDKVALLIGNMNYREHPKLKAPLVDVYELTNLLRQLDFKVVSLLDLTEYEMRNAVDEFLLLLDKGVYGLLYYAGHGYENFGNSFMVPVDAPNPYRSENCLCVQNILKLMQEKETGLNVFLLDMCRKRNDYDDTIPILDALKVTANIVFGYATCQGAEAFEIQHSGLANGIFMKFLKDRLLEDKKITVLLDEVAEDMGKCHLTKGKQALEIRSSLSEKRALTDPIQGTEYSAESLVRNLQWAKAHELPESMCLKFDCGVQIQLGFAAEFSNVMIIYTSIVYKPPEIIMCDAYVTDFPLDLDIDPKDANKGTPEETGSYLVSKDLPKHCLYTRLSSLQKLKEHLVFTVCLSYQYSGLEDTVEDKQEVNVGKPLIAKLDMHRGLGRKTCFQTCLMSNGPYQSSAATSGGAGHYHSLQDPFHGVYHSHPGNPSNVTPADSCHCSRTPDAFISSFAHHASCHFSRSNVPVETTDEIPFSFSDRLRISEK
Assay: MALT1 protease assay, Assay 2 (1 nM MALT1, Ac-LRSR-AMC substrate)
Assay type: biochemical
Conditions: 1 nM MALT1, 50 μM Ac-LRSR-AMC, 2 h pre-incubation, 8 hr incubation at RT
Description: MALT1 protease activity was assessed in an in vitro assay using a tetrapeptide as substrate and full-length MALT1 protein His-MALT1(1-824) purified from baculovirus-infected insect cells. The tetrapeptide substrate is Ac-LRSR-AMC (SM Biochemicals) with Km measured at around 100 μM.
The final assay buffer includes 1 nM (Assay 2) or 2 nM (Assay 1) of MALT1 full-length protein, 50 μM Ac-LRSR-AMC substrate, 50 mM Tris pH 7.5, 600 mM Sodium Citrate, 1 mM DTT, 1 mM EDTA, and 0.05% BSA in 384-well plate format using black microtiter square well plates (Optiplate 384-F, Perkin Elmer).
Test compounds were dissolved in 100% DMSO at stock of 10 mM, with final DMSO concentration 0.1%. Test compounds were pre-incubated with MALT1 protein for 2 h at room temperature. Substrate was added after the pre-incubation and fluorescence signal was measured using Envision at excitation 355 nm and emission 460 nm after 8 hr incubation at RT. Increase in the assay signal was linear over this period and proportional with increase in the enzyme content.
The fluorescence units were transformed to percentage of remaining activity by using the high control (HC, median of fluorescence signal from wells containing MALT1 protein, substrate, and DMSO) and low control (LC, median of fluorescence signal from wells with substrate only) with the formula below: […]
IC50 and Hill coefficients were obtained using Graph Pad Prism (Graph Pad software, Inc, USA) with non-linear regression analysis.

Row | Compound | IC50 [nM]
1 | CC1(C)CC(C(=O)Nc2cnc(-n3nccn3)c(Cl)c2)c2cnn3cc(C(F)F)nc3c21 (single isomer, unassigned) [Example 203, N-(5-chloro-6-(2H-1,2,3-triazol-2-yl)pyridin-3-yl)-2-(difluoromethyl)-9,9-dimethyl-8,9-dihydro-7H-cyclopenta[d]imidazo[1,2-b]pyridazine-7-carboxamide] | 10 to 100
2 | CC1(C)CC(C(=O)Nc2cnc(OC(F)F)c(C#N)c2)c2cnc3cc(Cl)nn3c21 (single isomer, unassigned) [Example 78, 2-chloro-N-(5-cyano-6-(difluoromethoxy)pyridin-3-yl)-8,8-dimethyl-7,8-dihydro-6H-cyclopenta[e]pyrazolo[1,5-a]pyrimidine-6-carboxamide] | 100 to 1000
3 | CC1(C)CC(C(=O)Nc2cnc(N=S(C)(C)=O)c(Cl)c2)c2cnc3cc(F)nn3c21 (single isomer, unassigned) [Example 132, N-(5-chloro-6-((dimethyl(oxo)-λ^6-sulfaneylidene)amino)pyridin-3-yl)-2-fluoro-8,8-dimethyl-7,8-dihydro-6H-cyclopenta[e]pyrazolo[1,5-a]pyrimidine-6-carboxamide] | 10 to 100
4 | CC1(C)CC(C(=O)Nc2cc(C(F)F)c(-n3cccn3)c(=O)[nH]2)c2cnc3cc(Cl)nn3c21 (stereo not shown) [Example 62, 2-chloro-N-(4-(difluoromethyl)-6-oxo-5-(1H-pyrazol-1-yl)-1,6-dihydropyridin-2-yl)-8,8-dimethyl-7,8-dihydro-6H-cyclopenta[e]pyrazolo[1,5-a]pyrimidine-6-carboxamide] | 10 to 100
5 | CC1(C)C[C@@H](C(=O)Nc2cnc(-n3nccn3)c(Cl)c2)c2cnn3cc(Cl)nc3c21 (single isomer, unassigned) [Example 194, 2-chloro-N-(5-chloro-6-(2H-1,2,3-triazol-2-yl)pyridin-3-yl)-9,9-dimethyl-8,9-dihydro-7H-cyclopenta[d]imidazo[1,2-b]pyridazine-7-carboxamide] | 100 to 1000
6 | C[C@]1(C(F)(F)F)C[C@@H](C(=O)Nc2cnc(-n3nccn3)c(C(F)(F)F)c2)c2cnc3cc(Cl)nn3c21 (single isomer, unassigned) [Example 55, N-(6-(2H-1,2,3-triazol-2-yl)-5˜(trifluoromethyl)pyridin-3-yl)-2-chloro-8-methyl-8-(trifluoromethyl)-7,8-dihydro-6H-cyclopenta[e]pyrazolo[1,5-a]pyrimidine-6-carboxamide] | 10 to 100
7 | CC1(C)CC(C)(C(=O)Nc2cnc(-n3nccn3)c(Cl)c2)c2cnc3cc(Cl)nn3c21 (single isomer, unassigned) [Example 139, 2-chloro-N-(5-chloro-6-(2H-1,2,3-triazol-2-yl)pyridin-3-yl)-6,8,8-trimethyl-7,8-dihydro-6H-cyclopenta[e]pyrazolo[1,5-a]pyrimidine-6-carboxamide] | ≥ 1000
8 | C[C@]1(C(F)(F)F)C[C@@H](C(=O)Nc2cnc(-n3nccn3)c(C(F)F)c2)c2cnc3cc(Cl)nn3c21 (single isomer, unassigned) [Example 63, 2-chloro-N-(5-(difluoromethyl)-6-(2H-1,2,3-triazol-2-yl)pyridin-3-yl)-8-methyl-8-(trifluoromethyl)-7,8-dihydro-6H-cyclopenta[e]pyrazolo[1,5-a]pyrimidine-6-carboxamide] | 100 to 1000
9 | CC(C)(O)c1ncc(NC(=O)[C@@H]2CC3(CCC3)c3c2cnc2cc(F)nn32)cc1Cl (single isomer, unassigned) [Example 104, N-(5-chloro-6-(2-hydroxypropan-2-yl)pyridin-3-yl)-2′-fluoro-6′,7′-dihydrospiro[cyclobutane-1,8′-cyclopenta[e]pyrazolo[1,5-a]pyrimidine]-6′-carboxamide] | ≥ 1000
10 | C[C@@]1(C(F)(F)F)C[C@@H](C(=O)Nc2cnc(-n3nccn3)c(Cl)c2)c2cnc3cc(F)nn3c21 (single isomer, unassigned) [Example 186] | 100 to 1000
11 | CC1(C)C[C@H](C(=O)Nc2cnc(C(=O)NC3CC3)c(C(F)F)c2)c2cnc3cc(Cl)nn3c21 (single isomer, unassigned) [Example 173] | 10 to 100
12 | CC1(C)C[C@@H](C(=O)Nc2cnc(OC3CC3)c(C#N)c2)c2cnc3cc(F)nn3c21 (single isomer, unassigned) [Example 80, N-(5-cyano-6-cyclopropoxypyridin-3-yl)-2-fluoro-8,8-dimethyl-7,8-dihydro-6H-cyclopenta[e]pyrazolo[1,5-a]pyrimidine-6-carboxamide] | ≥ 1000
13 | CC1(C)CC(C(=O)Nc2ccnc(C(F)(F)F)c2)c2cnc3cc(C(F)F)nn3c21 (single isomer, unassigned) [Example 99, 2-(difluoromethyl)-8,8-dimethyl-N-(2-(trifluoromethyl)pyridin-4-yl)-7,8-dihydro-6H-cyclopenta[e]pyrazolo[1,5-a]pyrimidine-6-carboxamide] | 100 to 1000
14 | CC1(C)CC(C(=O)Nc2cc(C#N)c(OC(F)F)nn2)c2cnc3cc(F)nn3c21 (stereo not shown) [Example 85, N-(5-cyano-6-(difluoromethoxy)pyridazin-3-yl)-2-fluoro-8,8-dimethyl-7,8-dihydro-6H-cyclopenta[e]pyrazolo[1,5-a]pyrimidine-6-carboxamide] | 100 to 1000
15 | Cc1cc(NC(=O)[C@@H]2CC(C)(C)c3c2cnc2cc(F)nn32)cnc1-n1nccn1 (single isomer, unassigned) [Example 182] | ≥ 1000
16 | C[C@@]1(C(F)(F)F)C[C@@H](C(=O)Nc2cnc(-n3nccn3)c(C(F)F)c2)c2cnc3cc(Cl)nn3c21 (single isomer, unassigned) [Example 65, 2-chloro-N-(5-(difluoromethyl)-6-(2H-1,2,3-triazol-2-yl)pyridin-3-yl)-8-methyl-8-(trifluoromethyl)-7,8-dihydro-6H-cyclopenta[e]pyrazolo[1,5-a]pyrimidine-6-carboxamide] | 100 to 1000
17 | CC1(C)CC(C(=O)Nc2cnc(OC(F)F)c(Cl)c2)c2cnc3cc(Cl)nn3c21 (single isomer, unassigned) [Example 67, 2-chloro-N-(5-chloro-6-(difluoromethoxy)pyridin-3-yl)-8,8-dimethyl-7,8-dihydro-6H-cyclopenta[e]pyrazolo[1,5-a]pyrimidine-6-carboxamide] | 100 to 1000
18 | CC1(C)CC(C(=O)Nc2cnc(-c3nnnn3C3COC3)c(Cl)c2)c2cnc3cc(Cl)nn3c21 (stereo not shown) [Example 163, 2-chloro-N-(5-chloro-6-(1-(oxetan-3-yl)-1H-tetrazol-5-yl)pyridin-3-yl)-8,8-dimethyl-7,8-dihydro-6H-cyclopenta[e]pyrazolo[1,5-a]pyrimidine-6-carboxamide] | 100 to 1000
19 | C[C@@H](O)c1cnn(-c2ncc(NC(=O)[C@@H]3CC4(CCC4)c4c3cnc3cc(Cl)nn43)cc2Cl)n1 (single isomer, unassigned) [Example 161] | ≥ 1000
20 | COc1cnc(C(F)(F)F)cc1NC(=O)C1CC(C)(C)c2c1cnc1cc(F)nn21 (single isomer, unassigned) [Example 92, 2-fluoro-N-(5-methoxy-2-(trifluoromethyl)pyridin-4-yl)-8,8-dimethyl-7,8-dihydro-6H-cyclopenta[e]pyrazolo[1,5-a]pyrimidine-6-carboxamide] | 100 to 1000
21 | CC1(C)CC(C(=O)Nc2cnc(OC(F)F)c(Cl)c2)c2cnc3cc(F)nn3c21 (single isomer, unassigned) [Example 76, N-(5-chloro-6-(difluoromethoxy)pyridin-3-yl)-2-fluoro-8,8-dimethyl-7,8-dihydro-6H-cyclopenta[e]pyrazolo[1,5-a]pyrimidine-6-carboxamide] | ≥ 1000
22 | Cc1cc(NC(=O)[C@@H]2CC(C)(C)c3c2cnc2cc(Cl)nn32)cnc1-n1nccn1 (single isomer, unassigned) [Example 180] | ≥ 1000
